Results: PubChem BioAssay (NCI)
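Compound exposure: 48 hours, 5 concentrations, 96-well plates. TGI is the concentration that stops growth completely.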

Experiments:
Assay in all cases: DTP human tumour cell line panel, 48 h
786-0 renal = system: 786-0 renal
NCI-H23 lung = system: NCI-H23 lung
TK-10 renal = system: TK-10 renal
SNB-78 CNS = system: SNB-78 CNS
OVCAR-3 ovarian = system: OVCAR-3 ovarian
HCT-116 colon = system: HCT-116 colon
SK-MEL-5 melanoma = system: SK-MEL-5 melanoma
UO-31 renal = system: UO-31 renal
HCC-2998 colon = system: HCC-2998 colon
SF-268 CNS = system: SF-268 CNS
M19-MEL melanoma = system: M19-MEL melanoma
SN12C renal = system: SN12C renal
A549 NSCLC = system: A549 NSCLC
HOP-62 NSCLC = system: HOP-62 NSCLC
COLO 205 colon = system: COLO 205 colon
SW-620 colon = system: SW-620 colon
SF-539 CNS = system: SF-539 CNS
KM20L2 colon = system: KM20L2 colon
NCI-H460 lung = system: NCI-H460 lung
SR leukemia = system: SR leukemia
MOLT-4 leukemia = system: MOLT-4 leukemia
SNB-75 CNS = system: SNB-75 CNS
NCI-H522 lung = system: NCI-H522 lung
MALME-3M melanoma = system: MALME-3M melanoma
DMS 114 small cell lung = system: DMS 114 small cell lung
OVCAR-4 ovarian = system: OVCAR-4 ovarian
NCI-H226 lung = system: NCI-H226 lung
U251 CNS = system: U251 CNS
HCT-15 colon = system: HCT-15 colon
XF 498 CNS = system: XF 498 CNS
ACHN renal = system: ACHN renal
OVCAR-5 ovarian = system: OVCAR-5 ovarian
CCRF-CEM leukemia = system: CCRF-CEM leukemia
DMS 273 small cell lung = system: DMS 273 small cell lung
RPMI-8226 leukemia = system: RPMI-8226 leukemia
M14 melanoma = system: M14 melanoma
IGROV1 ovarian = system: IGROV1 ovarian
UACC-62 melanoma = system: UACC-62 melanoma
K-562 leukemia = system: K-562 leukemia
OVCAR-8 ovarian = system: OVCAR-8 ovarian
HT29 colon = system: HT29 colon
LXFL 529 NSCLC = system: LXFL 529 NSCLC
SK-MEL-28 melanoma = system: SK-MEL-28 melanoma
SK-MEL-2 melanoma = system: SK-MEL-2 melanoma
LOX IMVI melanoma = system: LOX IMVI melanoma
RXF 393 renal = system: RXF 393 renal
SF-295 CNS = system: SF-295 CNS
HL-60(TB) leukemia = system: HL-60(TB) leukemia
EKVX NSCLC = system: EKVX NSCLC
SNB-19 CNS = system: SNB-19 CNS

With `C#CCN(Cc1ccc2nc(-c3ccccc3)c(N)nc2c1)c1cc(OC)c(OC)c(OC)c1` the TGI (786-0 renal) was > 100 µM, the TGI (NCI-H23 lung) was > 100 µM and the TGI (TK-10 renal) was > 100 µM. The TGI (SNB-78 CNS) was 78.9 µM, the TGI (OVCAR-3 ovarian) was 59 µM and the TGI (HCT-116 colon) was 57.7 µM. For the same compound, the TGI (SK-MEL-5 melanoma) was 25.7 µM, the TGI (UO-31 renal) was 69.3 µM and the TGI (HCC-2998 colon) was > 100 µM. The TGI (SF-268 CNS) was > 100 µM, the TGI (M19-MEL melanoma) was > 100 µM and the TGI (SN12C renal) was > 100 µM. The TGI (A549 NSCLC) was > 100 µM, the TGI (HOP-62 NSCLC) was > 100 µM and the TGI (COLO 205 colon) was 42.8 µM. For the same compound, the TGI (SW-620 colon) was > 100 µM, the TGI (SF-539 CNS) was > 100 µM and the TGI (KM20L2 colon) was > 100 µM. It also gave a TGI (NCI-H460 lung) of 81.1 µM, a TGI (SR leukemia) of 39.2 µM and a TGI (MOLT-4 leukemia) of 35.7 µM. The TGI (SNB-75 CNS) was 83.5 µM, the TGI (NCI-H522 lung) was 64.3 µM and the TGI (MALME-3M melanoma) was 83.3 µM. For the same compound, the TGI (DMS 114 small cell lung) was 37.7 µM, the TGI (OVCAR-4 ovarian) was > 100 µM and the TGI (NCI-H226 lung) was 52 µM. The TGI (U251 CNS) was > 100 µM, the TGI (HCT-15 colon) was > 100 µM and the TGI (XF 498 CNS) was 59.5 µM. For the same compound, the TGI (ACHN renal) was 80.7 µM, the TGI (OVCAR-5 ovarian) was > 100 µM and the TGI (CCRF-CEM leukemia) was 44.8 µM. It also gave a TGI (DMS 273 small cell lung) of 42.8 µM, a TGI (RPMI-8226 leukemia) of 32.3 µM and a TGI (M14 melanoma) of 93.7 µM. The TGI (IGROV1 ovarian) was > 100 µM, the TGI (UACC-62 melanoma) was 63.7 µM and the TGI (K-562 leukemia) was > 100 µM. The TGI (OVCAR-8 ovarian) was > 100 µM, the TGI (HT29 colon) was 59 µM and the TGI (LXFL 529 NSCLC) was 91.2 µM. The TGI (SK-MEL-28 melanoma) was > 100 µM, the TGI (SK-MEL-2 melanoma) was 64.8 µM and the TGI (LOX IMVI melanoma) was 59.3 µM. The TGI (RXF 393 renal) was 96.2 µM, the TGI (SF-295 CNS) was 66 µM and the TGI (HL-60(TB) leukemia) was 41.4 µM. The TGI (EKVX NSCLC) was > 100 µM and the TGI (SNB-19 CNS) was > 100 µM.
